Here are results for one compound from patent publication US20220331333A1, “RHOA PATHWAY INHIBITOR IN THE TREATMENT OF NEURODEVELOPMENTAL DISORDER OR NEUROPSYCHIATRIC DISORDER” (UNIVERSITE DE STRASBOURG, priority 2021, published 2022).

Experiment [1] concerns 16p11.2 Del/+ mouse model. Kind of experiment: Open field test after chronic fasudil treatment, 16p11.2 Del/+ line. In kind it is in vivo. As to conditions: 16p11.2 Del/+ and wt littermates, 100 mg/kg/day orally in drinking water, 4 weeks. On the procedure:
(§1) In this study, the inventors developed a protocol for a pre-clinical treatment (FIG. 1) with the drug fasudil hydrochloride or HA1077 ([…], LC laboratories Boston, Mass., USA). […] Animal bedding was changed once a week. At 11 weeks, animals were transferred from the animal facility to the phenotyping area. The temperature was kept at 21±2° C., and the light cycle was controlled as 12 h light and 12 h dark. At 12 weeks of age, three independent cohorts of mice for each line, with wild-type (wt) and mutant littermates, were subjected to a battery of behavioral tests (see below) for 2 weeks. […] The dose was estimated to 152.7 mg in feeding bottle (250 ml) changed twice a week considering the previous study in which the drinking volume was evaluated to about 4.6 ml/day/mouse. […] During each session the exploration activity was analyzed by measuring the total distance travelled, evaluated the adaptation of the mice to the environment over time, by splitting the data in intervals of 10 minutes and assessed the vertical activity through the number of rears. […] The exploration time of both objects A was recorded. […] The exploration time of the two objects (familiar object and novel object) was recorded. […] Data from behavioral characterization of Kctd13^+/- and 16p11.2 Del/+ mouse models were analyzed through the Student t-test (see supplementary table 1 and table 2 as a summary). […]

Experiment [2] deals with Kctd13^+/− mouse model. Kind of experiment: Open field test after chronic fasudil treatment, Kctd13+/− line. The experiment is classed as in vivo. The note with it: Kctd13+/− and wt littermates, 100 mg/kg/day orally in drinking water, 4 weeks. As to the method: as §1
Experiment [3] deals with RHOA. Kind of experiment: Western blot of RHOA in hippocampal lysates, 16p11.2 Del/+ line. In kind it is in vivo, mouse. The note with it: fasudil for 6 weeks, 18-week-old mice. On the procedure: (§2) At 12 weeks of age, three independent cohorts of mice for each line, with wild-type (wt) and mutant littermates, were subjected to a battery of behavioral tests (see below) for 2 weeks. Then, 14 weeks old mice were randomly divided into 2 groups: one treated with fasudil administrated orally ad libitum in drinking water to reach a dose of 100 mg/kg/day and a second with no treatment. The dose was estimated to 152.7 mg in feeding bottle (250 ml) changed twice a week considering the previous study in which the drinking volume was evaluated to about 4.6 ml/day/mouse. […]
(§3) Fresh hippocampal tissues were isolated by rapid decapitation/dissection of naive mice and snap frozen. […] Protein concentration was determined by Pierce™ BCA Protein Assay Kit (23225, Thermo Fisher Scientific, Strasbourg). […] Total levels of RHOA protein and Myosin Light Chain phosphorylation by Myosin Light Chain Kinase via RHOA pathway were analyzed using Western Blot. […] Signals were quantified using ImageJ and analyzed using Microsoft Excel and GraphPad Prism. […] The ratio of protein level or phosphorylation level against control β-actin protein level (detected with a mouse monoclonal Anti-βActin-Peroxidase antibody (A3854 Sigma)) was normalized to untreated wt sample mean. […]
(A western blot detects proteins with antibodies after separation by electrophoresis.)

In experiment [4] the test system is 16p11.2 Del/+ mouse model. Kind of experiment: Novel object recognition (NOR) test after chronic fasudil treatment, 16p11.2 Del/+ line. The experiment is classed as in vivo. The note with it: 16p11.2 Del/+ mice, 100 mg/kg/day orally in drinking water, tested at 19 weeks, 3 h retention delay. On the procedure:
as §1

For experiment [5], the system named is phosphorylated form of MLC (P-MLC). The experiment is described as follows: Western blot of phosphorylated MLC in hippocampal lysates, 16p11.2 Del/+ line. As to conditions: fasudil for 6 weeks, 18-week-old mice. The experiment is classed as in vivo, mouse. On the procedure:
as §2, §3

Experiment [6] relates to Kctd13^+/− mouse model. The experiment is described as follows: Novel object recognition (NOR) test after chronic fasudil treatment, Kctd13+/− line. The experiment is classed as in vivo. The note with it: Kctd13+/− mice, 100 mg/kg/day orally in drinking water, tested at 19 weeks, 3 h retention delay. On the procedure:
as §1

Experiment [7] deals with phosphorylated form of MLC (P-MLC). Kind of experiment: Western blot of phosphorylated MLC in hippocampal lysates, Kctd13+/− line. The experiment is classed as in vivo, mouse. The note with it: Kctd13+/− mutant mice, fasudil for 6 weeks, 18-week-old mice. As to the method: as §2, §3
In experiment [8] the test system is RHOA. The experiment is described as follows: Western blot of RHOA in hippocampal lysates, Kctd13+/− line. In kind it is in vivo, mouse. The note with it: fasudil for 6 weeks, 18-week-old mice. As to the method:
as §2, §3

Turning to `O=S(=O)(c1cccc2cnccc12)N1CCCNCC1` [fasudil, hexahydro-1-(5-isoquinolinesulfonyl)-1H-1,4-diazepine], the “vertical activity (number of rears) in open field” value (in experiment [1]; with Kctd13^+/− mouse model [2]) was “did not have effect on any genotype for the vertical activity” each time. Moreover, the “locomotor exploration activity (total distance travelled) in open field” value (in experiment [1] (treated vs non-treated); in the experiment on Kctd13^+/− mouse model [2] (treated vs non-treated)) was “did not change the locomotor exploration activity” each time. For the same compound, the “RHOA protein levels in hippocampus” value in the experiment on RHOA [3] and with RHOA [8] was “did not cause changes in RHOA protein levels” in each case. For the same compound, the “novel object recognition (recognition index vs 50% chance level)” value (in experiment [4]; in the experiment on Kctd13^+/− mouse model [6]) was “significantly improved the NOR defect” each time. The “MLC phosphorylation levels in hippocampus” value was “restored a normal MLC phosphorylation” in experiment [5] (16p11.2 Del/+ mutant mice), “induced increased MLC phosphorylation in wt mice” in experiment [5] (wt littermates of the 16p11.2 Del/+ line) and “reduced MLC phosphorylation levels” in experiment [7].
